Reference: patent US11661398B2, “Cellular transport system for transferring a sulfonic acid construct carrying a cargo into the cytoplasm of a cell” (Scientist of Fortune, S.A., priority 2017, dated 2023)
Entries after “also recorded” stand apart in the source; their conditions may differ. Counter-ions that a name gives are not always drawn.

Tests used:
PnGGT* D385Y = experiment: GGT* activity assay with cell free extracts of PnGGT* mutant variants; format: biochemical, Pseudomonas nitroreducens; details: 2 mM substrate
Protocol: (§1) FIG. 29. Expression analysis of selected PnGGT* mutant variants. Strain TK018 was transformed with the empty vector pACT3, the parent plasmid pPnGGT* or selected mutant variants thereof and grown in LB medium to early exponential phase. Synthesis of the PnGGT* variants was induced for 4 hours by adding 0.5 mM IPTG to the culture. (a) GGT* activity assays with cell free extracts and 2 mM of the substrate sulfobutanoyl-p-nitroanilide. […] Bars represent the average of three independent measurements with standard deviations shown as error bars. (b) SDS-PAGE of cell free extracts to confirm loading of similar protein amounts. (c) Western Blot of cell free extracts with an antibody directed against the large subunit of PnGGT* (38.5 kDa). Mutant variants Y167V Q168P and Y167H Q168G were synthesized slightly less efficiently than PnGGT*. All other mutant variants were synthesized with similar efficiency as PnGGT*.

PnGGT* P505T = experiment: as above; format: biochemical, Pseudomonas nitroreducens; details: 2 mM substrate, sodium salt
Protocol: as §1

PnGGT ΔN24 D405N = target: T1, PnGGT ΔN24 D405N (Pseudomonas nitroreducens, UniProt E0D5C2, D405N); experiment: Colorimetric GGT assay in whole cell lysates / cell free extracts; format: biochemical; details: whole cell lysate, 4 mM substrate, 50 mM Tris-HCl (pH 9.0), 410 nm
T1 sequence (E0D5C2 with tags, fused parts or gaps D405N): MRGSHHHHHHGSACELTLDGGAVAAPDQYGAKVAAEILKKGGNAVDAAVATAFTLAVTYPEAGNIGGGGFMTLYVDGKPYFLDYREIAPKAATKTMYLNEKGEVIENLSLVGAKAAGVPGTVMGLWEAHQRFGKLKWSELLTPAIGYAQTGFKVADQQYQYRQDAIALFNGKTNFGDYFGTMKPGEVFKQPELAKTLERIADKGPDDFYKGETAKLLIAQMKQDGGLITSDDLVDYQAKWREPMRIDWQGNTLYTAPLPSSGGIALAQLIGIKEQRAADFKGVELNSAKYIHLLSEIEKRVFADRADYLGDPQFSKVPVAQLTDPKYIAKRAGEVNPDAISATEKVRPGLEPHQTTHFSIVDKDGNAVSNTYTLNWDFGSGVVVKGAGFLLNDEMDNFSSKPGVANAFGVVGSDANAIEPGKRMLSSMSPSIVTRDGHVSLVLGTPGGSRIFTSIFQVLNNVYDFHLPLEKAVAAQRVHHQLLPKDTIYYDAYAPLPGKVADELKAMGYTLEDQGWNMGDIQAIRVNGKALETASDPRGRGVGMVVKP
Description: FIG. 22: Identification of GGT* activity and refactoring of the ssuABC operon. […] The release of 4-nitroaniline was quantified by measuring the absorption at 410 nm. (b) Plasmid map of the three-dimensional RBS-library for refactoring the ssuABC operon using 144 RBS variants per gene. RBS library sequences are underlined. Arrows point towards the final RBS sequences observed in plasmid pSsuABC. […] (e) Growth of strain TK088[pSsuABC]transformed with the empty vector pACT3 (black circles) or plasmid pPnGGT* (white circles) in liquid MS minimal medium supplemented with 0.5% glucose, 1 mM MgSO4, 0.4 mM L-leucine, 0.5 mM IPTG, 100 ng ml^−1 aTc and 0.5 mM sulfobutanoyl-L-histidine. Bars and dots from panels (a), (d) and (e) represent the average of three independent measurements with standard deviations shown as error bars.
To test for the desired activity a colorimetric enzyme assay was chosen and the substrate sulfobutanoyl-p-nitroanilide was synthesized for this purpose. Hydrolysis of this colorless substrate by a GGT variant into sulfobutanoic acid and the yellow dye 4-nitroaniline can be quantified photometrically at 410 nm. For that, cytoplasmic GGT variants containing an N-terminal 6×His-tag were first expressed from E. coli (EcGGT ΔN24) and Pseudomonas nitroreducens (PnGGT ΔN24), as well as EcGGT ΔN24 D433N and the corresponding mutant variant PnGGT ΔN24 D405N. […]

BW25113 ΔleuB (TK080) = experiment: Growth on different sulfur sources; format: cell-based, E. coli; details: 1 mM sulfur source, minimal medium, 0.5% glucose, 0.4 mM leucine
Protocol: FIG. 21: Growth of E. coli on sulfonates. Strains TK080 (a; BW25113 ΔleuB) and TK082 (b; BW25113 ΔleuB ΔssuEADCB ΔtauD) were grown in MS minimal medium supplemented with 0.5% glucose, 0.4 mM L-leucine, 1 mM MgCl2 and 1 mM of a sulfur source. TK080 was able to use the majority of the tested sulfur sources with a similar efficiency as sulfate. […] Dots represent the average of three independent measurements with standard deviations shown as error bars.
For the experiments relating to the sulfonate based synthetic transport system, unless stated otherwise, growth experiments in selective medium were carried out in sulfur free MS minimal medium (4 mM citric acid, 1 mM MgCl2, 20 mM NH4Cl, 50 mM KH2PO4 and 1×NTA mix (10 μM nitrilotriacetic acid, 3 μM CaCl2, 3 μM FeCl3, 1 μM MnCl2, 0.3 μM ZnCl2, 0.3 μM H3B3, 0.3 μM CrC3, 0.3 μM COCl2, 0.3 μM CuCl2, 0.3 μM Ni2C, 0.3 μM Na2MoO4, 0.3 μM Na2SeO3)) supplemented with 0.5% glucose. MgSO4 (1 mM), MgCl2 (1 mM), L-leucine (0.4 mM), IPTG (0.5 mM), aTc (100 ng mL-1), nicotinic acid (various concentrations), 3-picolylamine (various concentrations) and sulfonates (various concentrations) as indicated in the text. […] Synthesis schemes for sulfobutanoyl-p-nitroanilide and other sulfonates are given below.
The sulfonate transporters SsuABC and TauABC transport a wide variety of sulfonate compounds (Eichhorn et al., 2000) and can thus be exploited for the present synthetic transport system. As such, the uptake and utilization of sulfobutanoyl-L-leucine was assessed. The leucine auxotrophic strain BW25113 ΔleuB was tested for growth in minimal medium supplemented with 0.5% glucose, 0.4 mM leucine, 0.4 mM isoleucine and 1 mM of a sulfur-containing compound as the sole sulfur source.

`O=C(CCCS(=O)(=O)O)Nc1ccc([N+](=O)[O-])cc1` [sodium salt] was tested, and the activity towards substrate (PnGGT* D385Y) was “low activity”, the “activity towards substrate compared to PnGGT*” value (PnGGT* P505T) was “elevated activity; also recorded: slightly elevated in vitro activity” and the hydrolysis of substrate (PnGGT ΔN24 D405N) was “significantly higher activity than EcGGT ΔN24 D433N”. The “growth with compound as sole sulfur source” value (BW25113 ΔleuB (TK080)) was “comparable to growth on other sulfonates”.
